Test results as given in patent publication US20080234132A1, “Microcin B17 Analogs And Methods For Their Preparation And Use” (priority 2004, published 2008).
Converted amounts (≈) assume the structure as drawn. *1 amine or outer side, *2 acyl side, *3 side chain or, on linkers, in order; H or OH if unused. Where a SMILES comes first, the peptide text is derived from it. [ ]: non-standard residue; d: D form. X2 = O=C(c1c[nH]c(CN[*:1])c1)[*:2]

Columns and labels:
[1] = target: T1, E. coli DNA gyrase A2B2, wild type (Escherichia coli, UniProt P0AES4+P0AES6); details: Flatman et al., 2004; cited from earlier work
[2] = target: T2, E. coli DNA gyrase A2B2, MG1655 wild type (Escherichia coli, UniProt P0AES4+P0AES6); details: Flatman et al., 2004; cited from earlier work
[3] = target: T1, E. coli DNA gyrase A2B2, wild type; details: Flatman et al., 2004; cited from earlier work; remark: listed apart in the source
[4] = target: T2, E. coli DNA gyrase A2B2, MG1655 wild type; details: Flatman et al., 2004; cited from earlier work; remark: listed apart in the source
[5] = target: T2, E. coli DNA gyrase A2B2, MG1655 wild type; assay type: biochemical
Source text: ATP hydrolysis by DNA gyrase was linked to the oxidation of NADH using a pyruvate Kinase (PK)/lactate dehydrogenase (LDH) coupled enzyme assay and measured at 340 nm on a Spectramax Plus Microplate. […] DMSO was kept constant at 2%.
Experimental data were fitted and treated with the following equation:
where L represents the inhibitor concentration, v represents the rate of the ATPase reaction, and v0 represents the rate in absence of inhibitor. The IC50 is deduced from the equation 2:

[6] = target: E. coli DNA gyrase A2B2, W751R mutant (Trp751→Arg in DNA gyrase B subunit) (Escherichia coli, UniProt P0AES4+P0AES6, W751R); details: FIG. 18
Protocol: ATP hydrolysis by DNA gyrase was linked to the oxidation of NADH using a pyruvate Kinase (PK)/lactate dehydrogenase (LDH) coupled enzyme assay and measured at 340 nm on a Spectramax Plus Microplate. The ATPase assay was similar to that described previously by Pierrat & Maxwell, 2005. Each 100 μL reaction contained 50 mM Tris.HCl (pH 7.5), 24 mM KCl, 5 mM MgCl2, 6.5% (w/w) glycerol, 4 mM dithiotreitol, 0.4 mM NADH, 0.8 mM phosphorenol-pyruvate, 1% (w/w) PK/LDH mixture (Sigma), 51 nM-153 nM gyrase enzyme and the drug tested at varying concentrations. DMSO was kept constant at 2%. The reactions were measured in the presence or absence of linear DNA pBR322 at fixed concentration of 8.4 nM. Reactions were initiated by the addition of 10 mM Mg.ATP and measured at 25° C. over 1.5 hours.
DNA-dependent ATPase reactions were tested with the wild type enzyme A2B2 and the W751R mutant enzyme. In these DNA-dependent ATPase assays, the concentration of wild type A2B2 is 51 nM, the concentration of W751R mutant enzyme is 106 nM.

HeLa cells = assay: MTT cell viability assay, HeLa; assay type: cell-based, human; details: Homo sapiens, HeLa; 24 hours, MTT; read-out: In vivo HeLa Cells, approximate IC50
Protocol: (§4) Human cell cultures were initiated from frozen cell stocks (the gift of Dr J. Gavrilovic, UEA). […] Both human cell lines form adherent cultures and were maintained at 37° C. in T25 culture vessels as 10 mL cultures in CO2 Independent Media containing 10% foetal bovine serum (EU approved), 4 mM L-glutamine, penicillin/streptomycin (Invitrogen). […] Media was renewed every three days.
(§5) After incubation with MTT and solubilization, the resulting coloured solution is quantified using a scanning spectrophotometer. […] Cell viability was then determined by addition of MTT reagent (20 μL) in each well, as per manufacturer's instructions and incubated for a further 4 hours. Solubilization solution (100 μL) was added per well and the plates incubated overnight at 37° C. The plates were read in a spectrophotometer (scanning from 500-650 nm, signal peak at 570 nm).

Human topoisomerase IIα = Human topoisomerase IIα (Homo sapiens, UniProt P11388); assay: Human topoisomerase IIα-mediated relaxation assay; assay type: biochemical; parameters: purchased TopoGEN Inc; details: topoisomerase assays (FIG. 27)
Chain of Human topoisomerase IIα (P11388 whole entry): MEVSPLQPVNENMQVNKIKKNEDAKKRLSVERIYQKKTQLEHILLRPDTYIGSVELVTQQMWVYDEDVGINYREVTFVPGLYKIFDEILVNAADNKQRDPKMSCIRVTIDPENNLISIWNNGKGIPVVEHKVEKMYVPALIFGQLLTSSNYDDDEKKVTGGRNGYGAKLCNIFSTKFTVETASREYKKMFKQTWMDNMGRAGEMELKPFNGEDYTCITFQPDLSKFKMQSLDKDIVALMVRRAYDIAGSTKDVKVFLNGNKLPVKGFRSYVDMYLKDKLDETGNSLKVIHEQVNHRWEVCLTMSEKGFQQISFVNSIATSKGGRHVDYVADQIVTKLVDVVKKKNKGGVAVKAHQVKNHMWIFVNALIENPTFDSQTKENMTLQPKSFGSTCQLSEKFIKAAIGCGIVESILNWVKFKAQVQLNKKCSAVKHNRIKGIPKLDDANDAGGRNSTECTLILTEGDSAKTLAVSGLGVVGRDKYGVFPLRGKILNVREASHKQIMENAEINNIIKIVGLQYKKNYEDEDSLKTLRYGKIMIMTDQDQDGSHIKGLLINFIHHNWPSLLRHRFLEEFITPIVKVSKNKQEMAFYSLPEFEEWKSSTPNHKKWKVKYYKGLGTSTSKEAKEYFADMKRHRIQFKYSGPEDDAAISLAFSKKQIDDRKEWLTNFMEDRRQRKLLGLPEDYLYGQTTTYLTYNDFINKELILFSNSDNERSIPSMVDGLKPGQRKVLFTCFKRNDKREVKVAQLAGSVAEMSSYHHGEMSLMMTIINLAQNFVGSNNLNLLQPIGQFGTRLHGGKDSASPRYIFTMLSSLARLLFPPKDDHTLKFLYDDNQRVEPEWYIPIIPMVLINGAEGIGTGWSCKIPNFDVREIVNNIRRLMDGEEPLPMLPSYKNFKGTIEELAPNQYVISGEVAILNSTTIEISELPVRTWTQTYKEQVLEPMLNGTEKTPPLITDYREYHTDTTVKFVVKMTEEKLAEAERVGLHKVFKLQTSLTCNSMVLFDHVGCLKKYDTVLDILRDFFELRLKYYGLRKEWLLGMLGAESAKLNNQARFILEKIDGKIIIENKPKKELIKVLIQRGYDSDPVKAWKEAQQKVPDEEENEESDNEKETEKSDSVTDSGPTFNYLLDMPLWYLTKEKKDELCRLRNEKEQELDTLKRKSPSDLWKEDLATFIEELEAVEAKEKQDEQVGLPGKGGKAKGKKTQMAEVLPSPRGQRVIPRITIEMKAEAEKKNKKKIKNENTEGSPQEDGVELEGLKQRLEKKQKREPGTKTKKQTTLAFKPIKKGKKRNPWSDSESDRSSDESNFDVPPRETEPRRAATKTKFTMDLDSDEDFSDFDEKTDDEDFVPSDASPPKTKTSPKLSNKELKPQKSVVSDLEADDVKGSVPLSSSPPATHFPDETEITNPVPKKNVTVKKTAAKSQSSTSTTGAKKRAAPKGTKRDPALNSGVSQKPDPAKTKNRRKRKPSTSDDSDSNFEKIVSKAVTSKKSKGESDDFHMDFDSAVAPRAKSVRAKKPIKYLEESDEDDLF
Protocol: Human Topoisomerase IIα-mediated relaxation assays and decatenation assays were performed as per the manufacturer's instructions in a total of 20 μL. Relaxation assays contained Topoisomerase IIα (4.3 nM), 50 mM Tris.HCl pH 8,120 mM KCl, 10 mM MgCl2, 0.5 mM DTT, 0.5 mM ATP, 4.6 nM of supercoiled pBR322 DNA, and inhibitor where appropriate. Decatenation assays substituted the supercoiled DNA with 200 ng catenated kinetoplast DNA.
All in vitro reactions were incubated at 37° C. for 30 minutes. The DMSO concentration in each reaction was kept constant at 3.33%. Reactions were quenched with the addition of an equal volume of phenol/chloroform/isoamyl alcohol (25:24:1) and one tenth volume of loading buffer containing 40% sucrose, 100 mM Tris.HCl pH 7.5, 100 mM EDTA, 2 mg/mL bromophenol blue. The proteins were precipitated by vortexing, followed by centrifugation for 5 minutes at 16 000 g. The aqueous phase was loaded onto 1% agarose gels in Tris-acetate and were electrophoresed at 60 V for three hours in Tris-acetate buffer. The gels were stained in 1 μg/mL ethidium bromide. The gels were visualised using UV light and were documented and analysed using Syngene software.

HT-29 cells = assay: MTT cell viability assay, HT-29; assay type: cell-based, human; details: Homo sapiens, HT-29; 24 hours, MTT; read-out: In vivo HT29 Cells, approximate IC50
Protocol: as §4, §5

DNA gyrase = DNA gyrase (Escherichia coli, UniProt P0AES4+P0AES6); assay type: biochemical, E. coli
Protocol: GyrA and GyrB were added to solutions containing 35 mM Tris.HCl (pH, 7.5), 24 mM KCl, 4 mM MgCl2, 1.8 mM spermidine, 6.5% glycerol, 0.36 mg/mL BSA, 9 μg/mL tRNA, 5 mM DTT, 2 mM ATP and 10 nM relaxed pBR322 DNA. […] The reactions were incubated at 25° C., and at each time point 30-μl aliquots were quenched with 1 μL of 10% SDS and 2 μL of 2 mg/ml proteinase K. Quenched aliquots were kept on ice until the experiment was completed, at which time they were incubated at 37° C. for half an hour. An equal volume of chloroform/isoamyl alcohol (24:1) and a half volume of loading buffer STEB (40% sucrose/100 mM Tris HCl, pH 7.5/1 mM EDTA/2 mg/ml bromophenol blue) were added, and the mixtures then were vortexed and centrifuged for 1 min at 13,000 rpm. The aqueous phase was loaded onto 1% agarose, TAE (40 mM Tris-acetate, 1 mM EDTA) gels that contained 1 μg/ml ethidium bromide and were run at either 30 V overnight in TAE containing 1 μg/ml ethidium bromide (in the cold room) or 70 V for 2.5 hours in TAE containing 1 μg/ml ethidium bromide.

Solubility = details: water
E. coli MG1655 = assay: Halo assay, wild-type E. coli MG1655; assay type: cell-based
Protocol: Lawns of cells were prepared by spreading, on top of a LB+Agar plate, 3 ml of melted LSS medium (half-agar strength: 0.3 g Agar/50 ml LB) inoculated with 100 μl of a 10 ml LB overnight culture of E. coli cells grown at 37° C. […] The plates were incubated at 37° C. overnight and growth inhibition was qualitatively analysed by measuring the diameter of each halo.

[7] = system: Arabidopsis thaliana ecotype Columbia seeds; assay: Seed germination, Arabidopsis thaliana; assay type: in vivo; details: three week period
Source text: Germination begins when the dormant dry seed begins to take up water (imbibition from the surface sterilization process). Primary roots emerge while the seed is in the culture media. Subsequently the hypocotyls emerge and elongate to pull the cotyledons above the culture media surface. After straightening up, the cotyledons arrange into an horizontal position, as shown in the Figure, and, then spread apart in order to expose the first true leaves and the apical meristem (growing tip).
(§1) The microcin derivatives were tested for efficacy in planta against Arabidopsis thaliana ecotype Columbia according to known methods (see Wall et al., 2004). Seeds were germinated on sterile media containing the appropriate peptide and the effects were observed over a three week period. […] In […] seeds, such as A. thaliana, during imbibition the quiescent seed rapidly resumes metabolic and respiratory activity. One of the first steps, as part of this process, is the initiation of mitochondrial DNA synthesis which requires DNA gyrase and which may explain the exquisite sensitivity of the germinating seeds to Peptides 1 and 2.

[8] = target: DNA gyrase (MG 1655 A2B2) (Escherichia coli, UniProt P0AES4+P0AES6); assay: biochemical; parameters: species or system E. coli
Protocol: GyrA and GyrB were added to a solution containing 35 mM Tris.HCl (pH, 7.5), 24 mM KCl, 4 mM MgCl2, 1.8 mM spermidine, 6.5% glycerol, 0.36 mg/mL BSA, 9 μg/mL tRNA, 5 mM DTT, 2 mM ATP and 24 nM relaxed pBR322 DNA. […] The reactions were incubated at 25° C., and at each time point 30-μl aliquots were quenched with 1 μL of 10% SDS. An equal volume of chloroform/isoamyl alcohol (24:1) and a half volume of loading buffer STEB (40% sucrose/100 mM Tris.HCl, pH 7.5/100 mM EDTA/2 mg/ml bromophenol blue) were added, and the mixtures then were vortexed and centrifuged for 1 min at 13,000 rpm. The aqueous phase was loaded onto 1% agarose, TAE (40 mM Tris-acetate, 1 mM EDTA) gels and were run at either 30 V overnight in TAE (in the cold room) or 70 V for 2.5 hours. The gels were stained for about 20 min in TAE containing 1 μg/ml ethidium bromide followed by destaining in multiple washes of TAE.

DNA gyrase A2B2 = DNA gyrase A2B2 (Escherichia coli, UniProt P0AES4+P0AES6); assay: biochemical; assay type: biochemical, E. coli
Protocol: Relaxation assays were performed in a manner analogous to that described by Pierrat et al., 2005. Briefly, relaxation assays were performed as for the supercoiling assay but with some modifications: ATP and spermidine were omitted. Gyr A and Gyr B were added to a solutions containing 35 mM of Tris.HCl (pH=7.5), 24 mM of KCl, 4 mM of MgCl2, 1.8 mg/mL of spermidine, 6.5% of glycerol, 0.36 mg/mL of BSA, 9 μg/mL of tRNA, 5 mM of DTT, 2 mM of ATP and 24 nM of relaxed pBR322 DNA. […] The amount of DMSO was kept constant at 3.33%. The reactions were incubated at 25° C., and at each time point 30 μL aliquots were quenched with the addition of an equal volume of chloroform/isoamyl alcohol (24:1) and a half volume of loading buffer STEB (40% sucrose/100 mM Tris HCl, pH 7.5/100 mM EDTA/2 mg/mL bromophenol blue). The mixtures then were vortexed and centrifuged for 1 minute at 13,000 rpm. The aqueous phase was loaded onto 1% agarose, TAE (40 mM Tris-acetate, 1 mM EDTA) gels and were run at either 30 V overnight in TAE (in the cold room) or 70 V for 2.5 hours in TAE. The gels were stained for about 20 minutes in TAE containing 1 μg/mL ethidium bromide followed by destaining in multiple washes of TAE. The data were analysed using Syngel software.

[9] = system: Arabidopsis thaliana ecotype Columbia plants; assay: Effects on A. thaliana seedlings and plants; assay type: in vivo
Protocol: as §1
(§2) The leaf tissue initially turned yellow, followed by rapid necrosis of the tissue (see FIG. 32). […] The high hydrophility of Peptide 1 may preferentially allow the compound to readily diffuse through the leaf cuticle and epidermis to the mesophyll and phloem below.
(§3) The heterocyclic compounds were also spotted onto the leaves of 4 week old, tissue culture grown Arabidopsis thaliana ecotype Columbia plants (see FIG. 34, panels A-1). […] The browning and necrosis diffused through the full thickness of the leaf over the next 60 minutes (see FIG. 34, panel F) and spread towards the meristem (see FIG. 34, panels E, F, H). Complete necrosis of the meristem and newly emerged leaves, where organellar replication takes place, was complete within 24 hours (see FIG. 34, panel F).

[10] = system: A. thaliana ecotype Columbia seeds; assay: Seed germination of A. thaliana; assay type: in vivo, Arabidopsis thaliana
[11] = system: Arabidopsis thaliana ecotype Columbia plants; assay: Effects on whole plants/seedlings, Arabidopsis thaliana; assay type: in vivo
Source text: as §2, §3

For `CC(=O)O[C@@H]1[C@@H](C)O[C@@H](c2ccc3c(c2O)[C@@H](O)[C@]24O[C@@]2(C3=O)[C@@]2(O)C(=O)C=C(C)C[C@@]2(O)C[C@@H]4O)C[C@H]1OC(=O)/C=C/C=C/C=C/C=C/C(=O)Nc1c(O)c2ccc(O)c(Cl)c2oc1=O` [simocyclinone D8], the “Cleavage complex formation / quinolone cleavage” value [1] is given as “does not stimulate the gyrase-dependent cleavage complex formation but antagonizes quinolone cleavage”, the “Inhibition of supercoiling reaction” value [2] is given as “inhibits the supercoiling and relaxation reactions” and the “Inhibition of relaxation reaction” value [3] is given as “inhibits the supercoiling and relaxation reactions”. For the same molecule, the “Inhibition of ATPase reaction” value [4] was “not the ATPase reaction”.
With `O=C(O)c1cn(C2CC2)c2cc(N3CCNCC3)c(F)cc2c1=O` [Ciprofloxacin] the “Inhibition of DNA-dependent ATPase” value [5] was “slow down this ATPase hydrolysis rate of both wild type and mutant enzyme” and the “DNA-dependent ATPase, W751R mutant (novobiocin, ciprofloxacin)” value [6] was “slow down this ATPase hydrolysis rate of both wild type and mutant enzyme”.
In the case of `NCc1nc(C(=O)O)cs1` [deBoc-thiazole], the IC50 (HeLa cells) is reported as roughly 75 µM, the “IC50 of deBoc-thiazole compared with thiazole compound” value (Human topoisomerase IIα) is reported as “no difference to the calculated IC50 values” and the IC50 (HT-29 cells) is reported as roughly 15 µM.
For `C[C@H](NC(=O)CNC(=O)CNC(=O)c1c[nH]c(CNC(=O)[C@H](C)NC(=O)CNC(=O)[C@@H](N)CCC(N)=O)c1)C(=O)O` [Peptide 2] (H-QGA[X2]GGA-OH), the “stabilisation of the cleaved DNA-enzyme (cleavage) complex” value (DNA gyrase; Peptide 1 at 100 μM, [A2B2]=30 nM, up to 1 h) was “Neither Peptide 1 nor Peptide 2 stabilise”, the “Cleavage (IC50 μM)” value (DNA gyrase; Table 4) was “inactive” and the solubility (Solubility) was 1000 µM (≈ 582 µg/mL). For the same molecule, the “haloassay activity relative to Peptide 1” value (E. coli MG1655) was “twice less active than Peptide 1”, the “Inhibition of seed germination” value [7] was “able to inhibit germination of the seeds” and the “supercoiling activity relative to Peptide 1” value ([8]; FIG. 13) was “about half as active as Peptide 1”. The IC50 ([8]; Supercoiling (IC50 μM) MG 1655 A2B2, Table 4) was greater than 100 µM, the IC50 (DNA gyrase A2B2) was greater than 100 µM and the “concentration at which the relaxation reaction is inhibited” value (DNA gyrase A2B2; A2B2 70 nM, MccB17 tested at 25 μM) was 200 µM. For the same molecule, the “effect on 4-week old plants transferred to media containing the compound” value ([9]; 100 μM Peptide 1, 200 μM Peptide 2) was “induced tumourous, undifferentiated cell growth”, the “effect on 6-week old seedlings” value ([9]; in vivo) was “induces tumour-like growth” and the “effect on seed germination” value ([10]; 100 μM) was “only a bleaching effect”. For the same molecule, the “effect on seed germination” value ([10]; 150 μM) was “seed germination occurred but the growth is slower compared with the untreated seeds”, the “effects on 6-week old seedlings and germinating seeds” value ([10]; 200 μM) was “the same as the effects observed for 100 μM Peptide 1” and the “activity against seed germination” value ([10]; concentrations tested) was “able to inhibit germination”. The “potency relative to Peptide 1 in plant assays” value ([10]; in vivo) was “half the potency of Peptide 1”, the “Effect on 4-week old plants” value ([11]; 200 μM) was “induced tumourous, undifferentiated cell growth in the meristematic region and petioles” and the “effect on 6-week old seedlings” value ([11]; observed at 150 μM (FIG. 26)) was “induces tumour-like growth near the apical meristem zone”.
